Source: US4045290A, “Diagnostic method and compounds for use therewith” (Princeton Biomedix Incorporated, priority 1976, dated 1977)
Counter-ions that a name gives are not always drawn.

Columns and labels:
alkaline phosphatase [1] = assay: Kinetic rate of Thymol Blue release at 600 nm from substrate with serum alkaline phosphatase; type: biochemical; details: for absorbance rate at 600 nm: 0.1 ml Validate A, 25° C.
Description: According to the test procedure of the subject invention, Thymol Blue Monophosphate is hydrolyzed by alkaline phosphatase to Thymol Blue in the presence of phosphorylatable diethanolamine buffer at pH 10.2. The color produced as a result thereof is proportional to enzyme present and the average change in absorbance per minute (ΔA/min) is determined at a wavelength of 600 nm.
Other amino alcohol buffers which can be phosphorylated and which can be used in this test are, for example, 2-ethylaminoethanol, 3-dimethylamino-1, 2-propanediol, 2-methylaminoethanol, those listed by Elias Amador, Clinical Chemistry, 18, 94 (1972) and the like. The amino alcohol buffer is present in an amount sufficient to raise the pH of the reaction mixture to about 10.2. The magnesium activator is used in an amount sufficient to activate the alkaline phosphatase enzyme in the sample to be tested. The concentration of magnesium ion in the substrate reagent is about 1.5 millimoles per liter. The concentration of Thymol Blue Monophosphate in the reagent is not critical but must be sufficient to permit a kinetic reaction to proceed over a period of time without the substrate being exhausted. The preferred concentration of this material is between 1 and 3 millimoles per liter. The serum sample to be tested is contacted with the substrate reagent at a given temperature which may be from about 22° to about 40° C. but preferably at 30° C. or 37° C. While the temperature affects the rate of reaction, the particular temperature used, within the limits of the stability of the sample, is not critical hereto. The average change in absorbance per minute (ΔA/min) at 600 nm is then determined in a spectrophotometer capable of reading absorbance at 600 nm and maintaining constant temperature in the cuvet compartment. By definition, one unit of alkaline phosphatase activity is the amount of enzyme that will hydrolyze one micromole of Thymol Blue Monophosphate to Thymol Blue in one minute at 30° C. The enzyme activity is calculated by the following formula: [formula] where: U/liter =units of enzyme activity per liter at 30° C.

[2] = Storage stability of substrate / reagent (absorbance at 600 nm, TLC); type: physicochemical
alkaline phosphatase [3] = target: T1, alkaline phosphatase (Homo sapiens, UniProt P05186); assay: Serum Alkaline Phosphatase End Point Assay; type: biochemical; details: 1 ml reagent + 0.1 ml serum sample, 10 minutes at 37° C., stopped with NaOH/Na2CO3
T1 construct: from tissue; host or cells: serum
T1 sequence (P05186 18-501 limits assumed): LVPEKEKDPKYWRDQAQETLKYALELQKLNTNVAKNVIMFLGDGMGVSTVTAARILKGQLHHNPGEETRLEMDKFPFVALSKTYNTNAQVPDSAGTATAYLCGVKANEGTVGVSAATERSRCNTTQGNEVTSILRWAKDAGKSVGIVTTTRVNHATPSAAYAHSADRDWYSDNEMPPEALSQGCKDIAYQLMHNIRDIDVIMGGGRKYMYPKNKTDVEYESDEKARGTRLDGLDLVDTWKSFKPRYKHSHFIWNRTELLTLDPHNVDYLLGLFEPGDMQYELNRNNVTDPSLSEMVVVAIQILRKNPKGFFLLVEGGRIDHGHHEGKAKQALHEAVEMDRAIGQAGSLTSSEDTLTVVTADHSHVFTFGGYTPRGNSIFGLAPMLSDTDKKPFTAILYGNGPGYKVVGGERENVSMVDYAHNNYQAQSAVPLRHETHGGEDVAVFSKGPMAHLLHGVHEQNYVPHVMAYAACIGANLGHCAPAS
Description: If so desired an end-point procedure may be employed for determination of serum alkaline phosphatase activity employing Thymol Blue Monophosphate as the substrate. In this instance, the test serum sample is added to the diethanolamine buffered Thymol Blue Monophosphate substrate solution and the reaction is terminated after 10 minutes time by addition of an alkaline reagent such as, for example, 0.1M NaOH and 0.1M Na2 CO3. The absorbance of the sample is read at 600 nm and the enzyme activity is determined from a standard curve prepared from a Thymol Blue standard. The standard curve is prepared by measuring absorbance of dilutions of a known standard and plotting the measured absorbance against the calculated enzyme activity in units per liter.
A substrate for measurement of alkaline phosphatase by the end-point method prepared identical to that of example XVI. One ml of the reagent was placed in a suitable 10 ml tube for measurement of the test specimen and one ml of the reagent was placed in a second tube for measurement of the reagent blank. […] The reagent blank solution was used to set the spectrophotometer at 0 absorption and the specimen tube was then measured and found to have an absorption of 0.329 at 600 nm. From a standard curve constructed from known concentrations of Thymol Blue an activity of alkaline phosphatase of 38 U/liter was determined.

acid phosphatase = assay: Acid Phosphatase - End Point Assay; type: biochemical; details: 1.2 mmol/liter substrate, 20 minutes 37° C.
Description: An end-point procedure may be employed for determination of acid phosphatase activity employing Thymol Blue Monophosphate as the substrate. In this instance, the test serum sample is added to a Thymol Blue Monophosphate solution buffered to a pH of about 5 and the reaction is terminated by addition of an alkaline reagent after 20 minutes reaction time. The absorbance of the sample is then read at 600 nm and the acid phosphatase enzyme activity is determined from a standard curve prepared from a Thymol Blue standard as described above.
A reagent was prepared containing 1.2 mmol/liter of Thymol Blue Monophosphate, 0.05 M Citrate buffer pH 5.0, and 0.1 % non inonic detergent, Tergitol NPX (Union Carbide Corporation).
One ml of this substrate reagent solution was placed in each of two test tubes which were warmed to 37° C. for 5 minutes. To one of the test tubes was added 0.2 ml of a serum sample containing an elevated level of acid phosphatase. The mixture was then permitted to stand at 37° C. for 20 minutes at which time 3.0 mls of alkali reagent (0.1 m Na2 CO3 + 0.1M NaOH) was added to stop the reaction. […]
The absorption of each solution was measured at 600 nm against distilled water. […] From standard curve, the acid phosphatase activity of the serum was calculated to be 6.5 U/liter.

[4] = Solubility and physical properties; type: physicochemical
[5] = substrate (not freeze-dried) in DEA buffer

With `Cc1cc(O)c(C(C)C)cc1C1(c2cc(C(C)C)c(OP(=O)(O)O)cc2C)OS(=O)(=O)c2ccccc21` (stereo not drawn) [I, Thymol Blue Monophosphate, Sodium Salt Solution] as the molecule, how does the “rate of reaction at 600 nm” value (alkaline phosphatase [1]; 2 ml working reagent (DEA buffer pH 10.2) + 50 μl Validate A control serum, 30° C.) read?
The value was 0.0308 min⁻¹.

For `Cc1cc(O)c(C(C)C)cc1C1(c2cc(C(C)C)c(OP(=O)(O)O)cc2C)OS(=O)(=O)c2ccccc21` (stereo not drawn) [II, Thymol Blue Monophosphate (AMPD Salt)], which “performance as substrate for alkaline phosphatase (release of Thymol Blue)” value (alkaline phosphatase [1]; pH 10.2 diethanolamine buffer with magnesium chloride, sera containing alkaline phosphatase) is on record?
Its value is “performed as a substrate for alkaline phosphatase”.

For `Cc1cc(O)c(C(C)C)cc1C1(c2cc(C(C)C)c(OP(=O)(O)O)cc2C)OS(=O)(=O)c2ccccc21` (stereo not drawn) [III, Phosphorylated Thymol Blue], which “absorbance rate (ΔA/min.) at 600 nm” value (alkaline phosphatase [1]; 2 mg solid in 2.9 ml diethanolamine buffer pH 10.2, 0.1 ml Validate A) is on record?
Its value is 0.0180 min⁻¹.

What about the “absorbance rate (ΔA/min.) at 600 nm” value (alkaline phosphatase [1]; 5 mg sample in diethanolamine buffer pH 10.2, 0.1 ml Validate A) of the same molecule?
The value was 0.028 min⁻¹.

What does the source list for `Cc1cc(O)c(C(C)C)cc1C1(c2cc(C(C)C)c(OP(=O)(O)O)cc2C)OS(=O)(=O)c2ccccc21` (stereo not drawn) [IV, Thymol Blue Monophosphate in Diethanolamine Buffer]?
rate at 600 nm (alkaline phosphatase [1]; 2.9 ml test volume in 1.0M DEA buffer pH 10.2, 0.1 ml Lederzyme Control Sera, 30° C.): 0.037 min⁻¹; absorbance at 600 nm of buffered substrate, initial ([2]; 2.9 ml test volume, 1.0M DEA buffer pH 10.2, fresh): 0.131; frozen buffered substrate after storage (absorbance) ([2]; frozen, 6 months): remained unchanged; activity toward alkaline phosphatase after storage ([2]; refrigerated at 2° to 8° C. over 6 months): remained unchanged; absorbance at 600 nm of buffered substrate after storage ([2]; refrigerated at 2° to 8° C. over 6 months, increase due to gradual hydrolysis): approximately 0.550

Which “change in absorbance (ΔA/min) at 600 nm” value (alkaline phosphatase [1]; 2 ml substrate 1.5 mmol/liter, DEA buffer pH 10.2, MgCl2, 0.05 ml serum to be tested, 30° C.) does the source give for `Cc1cc(O)c(C(C)C)cc1C1(c2cc(C(C)C)c(OP(=O)(O)O)cc2C)OS(=O)(=O)c2ccccc21` (stereo not drawn) [Thymol Blue Monophosphate] here?
The value was 0.022.

What about the “absorption at 600 nm of specimen tube against reagent blank” value (alkaline phosphatase [3]) of the same molecule?
Its value is 0.329.

And the “absorption at 600 nm of test serum sample” value (acid phosphatase; citrate buffer pH 5.0, 0.2 ml serum with elevated acid phosphatase, against distilled water)?
Its value is 0.364.

What about the “net increase in absorption over blank” value (acid phosphatase; citrate buffer pH 5.0, 0.2 ml serum) of the same molecule?
The value was 0.253 absorption units.

For `Cc1cc(O)c(C(C)C)cc1C1(c2cc(C(C)C)c(OP(=O)(O)O)cc2C)OS(=O)(=O)c2ccccc21` (stereo not drawn) [VIII, Sodium Thymol Blue Monophosphate Solution], which “rate at 600 nm” value (alkaline phosphatase [1]; 1 ml substrate solution + 1 ml 0.6 M DEA buffer pH 10.2, 0.1 ml Validate A, temperature not given) is on record?
The value was 0.0758 min⁻¹.

What about the “solubility in absolute ethanol” value ([4]; yellow orange solid) of the same molecule?
The value was “slightly soluble”.

What about the solubility in water ([4]; yellow orange solid) of the same molecule?
Its solubility in water is “readily soluble”.

Which “absorbance rate at 600 nm” value (alkaline phosphatase [1]; [5]) does the source give for `Cc1cc(O)c(C(C)C)cc1C1(c2cc(C(C)C)c(OP(=O)(O)O)cc2C)OS(=O)(=O)c2ccccc21` (stereo not drawn) [X, Thymol Blue Monophosphate Cyclohexylammonium Salt] here?
The value was 0.0427 min⁻¹.

And the “stability of solid by TLC” value ([2]; after one month standing at room temperature)?
Its value is “Thymol Blue was detected on TLC indicating decomposition”.

What about the hygroscopicity ([4]; orange solid product) of the same molecule?
Its hygroscopicity is “hygroscopic”.

For `Cc1cc(O)c(C(C)C)cc1C1(c2cc(C(C)C)c(OP(=O)(O)O)cc2C)OS(=O)(=O)c2ccccc21` (stereo not drawn) [XI, Thymol Blue Monophosphate Sodium Salt Solution], which “absorbance rate at 600 nm” value (alkaline phosphatase [1]; [5]) is on record?
Its value is 0.0577 min⁻¹.

For `Cc1cc(O)c(C(C)C)cc1C1(c2cc(C(C)C)c(OP(=O)(O)O)cc2C)OS(=O)(=O)c2ccccc21` (stereo not drawn) [XII, Thymol Blue Monophosphate Ammonium Salt], which “absorbance rate at 600 nm” value (alkaline phosphatase [1]; substrate (not freeze-dried) in DEA buffer, Monophosphate Ammonium Salt) is on record?
Its value is 0.0486 min⁻¹.

Which “substrate activity with alkaline phosphatase” value (alkaline phosphatase [1]; aqueous solution of the salt, clear amber liquid) does the source give for `Cc1cc(O)c(C(C)C)cc1C1(c2cc(C(C)C)c(OP(=O)(O)O)cc2C)OS(=O)(=O)c2ccccc21` (stereo not drawn) [XIII, Thymol Blue Monophosphate, Tris (hydroxymethyl)aminomethane Salt] here?
The value was “potent substrate activity”.

What about the “absorbance rate at 600 nm” value (alkaline phosphatase [1]; freeze-dried reagent reconstituted) of the same molecule?
Its value is 0.0552 min⁻¹.

What about the “absorbance rate at 600 nm” value (alkaline phosphatase [1]; [5]) of the same molecule?
Its value is 0.0600 min⁻¹.
